According to patent US10844019B2, “1-phenyl-3-carbamoyl urea compound, and use thereof” (Sumitomo Chemical Company, Limited, priority 2016, dated 2020):

System: cucumber phytophthora blight fungi (Phytophthora capsici)
Test: Test for controlling cucumber phytophthora blight fungi (growth in PDB medium, absorbance at 600 nm)
Format: cell-based
Conditions: 4.5 mg in 100 μL dimethyl sulfoxide, 1 μL of it in 150 μL PDB medium with zoospores, 27° C., three days, Efficacy=100×(X−Y)/X
Description: Four point five (4.5) milligrams of the present compound was diluted with 100 μL of dimethyl sulfoxide. One (1) μL portion of the diluted liquid was dispensed into a titer plate (96 wells), and thereto was then dispensed 150 μL of a potato dextrose broth medium (PDB medium) containing zoospores of cucumber phytophthora blight fungi (Phytophthora capsici). This plate was cultured at 27° C. for three days, thereby allowing the cucumber phytophthora blight fungi to undergo proliferation, and the absorbance at 600 nm of each well of the titer plate was then measured to determine a degree of growth of the cucumber phytophthora blight fungi. The efficacy was calculated from the determined degree of growth by the below-mentioned “Equation 1”. As a result, the efficacy of the Present compound was 80% or more. Efficacy=100×(X−Y)/X “Equation 1” where X: Degree of fungal growth in non-treated area Y: Degree of fungal growth in treated area
In the test example, a non-treated area means an area in which a test was conducted in the same manner, except that dimethyl sulfoxide was dispensed in place of the present compound diluted with dimethyl sulfoxide.

SMILES | Efficacy
CCOC(=O)COc1ncccc1Oc1cc(NC(C)=O)c(F)cc1Cl [N-[4-chloro-2-fluoro-5-{2-(ethoxycarbonyl)methoxy-3-pyridyloxy}phenyl]acetamide] | less than 50%
CCOC(=O)COc1ncccc1Oc1cc(NC(=O)NC(N)=O)c(F)cc1Cl [Present compound] | ≥ 80%
